# Like-named read-outs stand apart in the source and are kept apart here.
# Key:
# Proteus vulgaris species = test: MIC in vitro, plate test (agar), Table 1; assay type: cell-based; details: about 37° C, readings 24 and 48 h
# Experimental: (§1) The minimum inhibitory concentrations in vitro for some of the new compounds shown in Table 1 (MIC) were determined by the plate test in an agar medium of the following composition: |proteose peptone 10.0 g per liter |5.1 × 10^3 germs were inoculated per plate. […]. Readings were taken after 24 and 48 hours, and the incubation temperature was about 37° C.
# [1] = test system: Staphylococcus aureus 7705; test: MIC, series dilution test (complete medium), Table 2; assay type: cell-based; details: 37° C, 18, 24 and 48 h, read-out: Minimum inhibitory concentration (MIC)
# Experimental: (§2) Minimum inhibitory concentration (MIC) in γ/ml of medium, measured by the series dilution test (complete medium), incubation temperatures: 37° C, determination of the MIC after 18, 24 and 48 hours.
# Mycoplasma gallisepticum [2] = test: as above; assay type: cell-based; details: Mycoplasmoides gallisepticum, 37° C, 18, 24 and 48 h, read-out: Minimum inhibitory concentration (MIC)
# Experimental: as §2
# Klebsiella 63 = test: as above; assay type: cell-based; details: 37° C, 18, 24 and 48 h, read-out: Minimum inhibitory concentration (MIC)
# Experimental: as §2
# Pseudomonas aeruginosa W = test: as above; assay type: cell-based; details: 37° C, 18, 24 and 48 h, read-out: Minimum inhibitory concentration (MIC)
# Experimental: as §2
# [3] = test system: Streptococcus faecalis ATCC liquef.; test: as above; assay type: cell-based; details: Enterococcus faecalis, 37° C, 18, 24 and 48 h, read-out: Minimum inhibitory concentration (MIC)
# Experimental: as §2
# [4] = test system: Neisseria catharalis N 1/41; test: as above; assay type: cell-based; details: N1/41, 37° C, 18, 24 and 48 h, read-out: Minimum inhibitory concentration (MIC)
# Experimental: as §2
# [5] = test system: Streptococcus faecalis ATCC Blaschke; test: as above; assay type: cell-based; details: Enterococcus faecalis, 37° C, 18, 24 and 48 h, read-out: Minimum inhibitory concentration (MIC)
# Experimental: as §2
# Klebsiella K 10 = test: as above; assay type: cell-based; details: K10, 37° C, 18, 24 and 48 h, read-out: Minimum inhibitory concentration (MIC)
# Experimental: as §2
# Escherichia coli 2 = test: as above; assay type: cell-based; details: 37° C, 18, 24 and 48 h, read-out: Minimum inhibitory concentration (MIC)
# Experimental: as §2
# Proteus vulgaris 1017 = test: as above; assay type: cell-based; details: 37° C, 18, 24 and 48 h, read-out: Minimum inhibitory concentration (MIC)
# Experimental: as §2
# [6] = test system: Streptococcus faecalis ATCC 8698; test: as above; assay type: cell-based; details: Enterococcus faecalis, ATCC8698, 37° C, 18, 24 and 48 h, read-out: Minimum inhibitory concentration (MIC)
# Experimental: as §2
# [7] = test system: Streptococcus faecalis ATCC species; test: as above; assay type: cell-based; details: Enterococcus faecalis, 37° C, 18, 24 and 48 h, read-out: Minimum inhibitory concentration (MIC)
# Experimental: as §2
# [8] = test system: Staphylococcus aureus BRL; test: as above; assay type: cell-based; details: 37° C, 18, 24 and 48 h, read-out: Minimum inhibitory concentration (MIC)
# Experimental: as §2
# Escherichia coli A 261 [9] = test: as above; assay type: cell-based; details: A261, 37° C, 18, 24 and 48 h, read-out: Minimum inhibitory concentration (MIC)
# Experimental: as §2
# Escherichia coli C 165 [10] = test: as above; assay type: cell-based; details: C165, 37° C, 18, 24 and 48 h, read-out: Minimum inhibitory concentration (MIC)
# Experimental: as §2
# [11] = test system: Streptococcus faecalis ATCC 8564; test: as above; assay type: cell-based; details: Enterococcus faecalis, ATCC8564, 37° C, 18, 24 and 48 h, read-out: Minimum inhibitory concentration (MIC)
# Experimental: as §2
# [12] = test system: Streptococcus faecalis ATCC 13; test: as above; assay type: cell-based; details: Enterococcus faecalis, ATCC13, 37° C, 18, 24 and 48 h, read-out: Minimum inhibitory concentration (MIC)
# Experimental: as §2
# [13] = test system: Salmonella paratyphii BB II; test: as above; assay type: cell-based; details: 37° C, 18, 24 and 48 h, read-out: Minimum inhibitory concentration (MIC)
# Experimental: as §2
# Proteus vulgaris 3400 = test: as above; assay type: cell-based; details: 37° C, 18, 24 and 48 h, read-out: Minimum inhibitory concentration (MIC)
# Experimental: as §2
# Escherichia coli 55 B 5 = test: as above; assay type: cell-based; details: 55B5, 37° C, 18, 24 and 48 h, read-out: Minimum inhibitory concentration (MIC)
# Experimental: as §2
# [14] = test system: Streptococcus faecalis ATCC 8699; test: as above; assay type: cell-based; details: Enterococcus faecalis, ATCC8699, 37° C, 18, 24 and 48 h, read-out: Minimum inhibitory concentration (MIC)
# Experimental: as §2
# [15] = test system: Mycobacterium tuberculosis H 37 RV; test: as above; assay type: cell-based; details: H37RV, 37° C, 18, 24 and 48 h, read-out: Minimum inhibitory concentration (MIC)
# Experimental: as §2
# [16] = test system: Streptococcus faecalis ATCC B. H.; test: as above; assay type: cell-based; details: Enterococcus faecalis, 37° C, 18, 24 and 48 h, read-out: Minimum inhibitory concentration (MIC)
# Experimental: as §2
# Escherichia coli 183/58 = test: as above; assay type: cell-based; details: 37° C, 18, 24 and 48 h, read-out: Minimum inhibitory concentration (MIC)
# Experimental: as §2
# Proteus mirabilis 2935 = test: as above; assay type: cell-based; details: 37° C, 18, 24 and 48 h, read-out: Minimum inhibitory concentration (MIC)
# Experimental: as §2
# [17] = test system: Streptococcus faecalis ATCC 8580; test: as above; assay type: cell-based; details: Enterococcus faecalis, ATCC8580, 37° C, 18, 24 and 48 h, read-out: Minimum inhibitory concentration (MIC)
# Experimental: as §2
# [18] = test system: Corynebacterium diphteriae gravis; test: as above; assay type: cell-based; details: 37° C, 18, 24 and 48 h, read-out: Minimum inhibitory concentration (MIC)
# Experimental: as §2
# [19] = test system: Streptococcus faecalis ATCC 8711; test: as above; assay type: cell-based; details: Enterococcus faecalis, ATCC8711, 37° C, 18, 24 and 48 h, read-out: Minimum inhibitory concentration (MIC)
# Experimental: as §2
# [20] = test system: Streptococcus faecalis ATCC durans; test: as above; assay type: cell-based; details: Enterococcus faecalis, 37° C, 18, 24 and 48 h, read-out: Minimum inhibitory concentration (MIC)
# Experimental: as §2
# [21] = test system: Staphylococcus aureus 133; test: as above; assay type: cell-based; details: 37° C, 18, 24 and 48 h, read-out: Minimum inhibitory concentration (MIC)
# Experimental: as §2
# Pseudomonas aeruginosa M = test: as above; assay type: cell-based; details: 37° C, 18, 24 and 48 h, read-out: Minimum inhibitory concentration (MIC)
# Experimental: as §2
# Escherichia coli 14 = test: as above; assay type: cell-based; details: 37° C, 18, 24 and 48 h, read-out: Minimum inhibitory concentration (MIC)
# Experimental: as §2
# Klebsiella ATCC 10031 = test: as above; assay type: cell-based; details: ATCC10031, 37° C, 18, 24 and 48 h, read-out: Minimum inhibitory concentration (MIC)
# Experimental: as §2
# [22] = test system: Streptococcus faecalis ATCC 9700; test: as above; assay type: cell-based; details: Enterococcus faecalis, ATCC9700, 37° C, 18, 24 and 48 h, read-out: Minimum inhibitory concentration (MIC)
# Experimental: as §2
# Pseudomonas aeruginosa B = test: as above; assay type: cell-based; details: 37° C, 18, 24 and 48 h, read-out: Minimum inhibitory concentration (MIC)
# Experimental: as §2
# Proteus mirabilis G = test: as above; assay type: cell-based; details: 37° C, 18, 24 and 48 h, read-out: Minimum inhibitory concentration (MIC)
# Experimental: as §2
# Escherichia coli A 261 [23] = test: MIC in vitro, plate test (agar), Table 1; assay type: cell-based; details: A261, about 37° C, readings 24 and 48 h
# Experimental: as §1
# Escherichia coli C 165 [24] = test: MIC in vitro, plate test (agar), Table 1; assay type: cell-based; details: C165, about 37° C, readings 24 and 48 h
# Experimental: as §1
# Streptococcus pyogenes W = test: MIC in vitro, plate test (agar), Table 1; assay type: cell-based; details: about 37° C, readings 24 and 48 h
# Experimental: as §1
# [25] = test system: Pseudomonas aeruginosa Bonn; test: MIC in vitro, plate test (agar), Table 1; assay type: cell-based; details: about 37° C, readings 24 and 48 h
# Experimental: as §1
# [26] = test system: Kletosiella pneumonia 8085; test: MIC in vitro, plate test (agar), Table 1; assay type: cell-based; details: about 37° C, readings 24 and 48 h
# Experimental: as §1
# [27] = test system: Pseudomonas aeruginosa Walter; test: MIC in vitro, plate test (agar), Table 1; assay type: cell-based; details: about 37° C, readings 24 and 48 h
# Experimental: as §1
# Klebsiella pneumonia 63 = test: MIC in vitro, plate test (agar), Table 1; assay type: cell-based; details: Klebsiella pneumoniae, about 37° C, readings 24 and 48 h
# Experimental: as §1
# [28] = test system: Staphylococcus aureus 133; test: MIC in vitro, plate test (agar), Table 1; assay type: cell-based; details: about 37° C, readings 24 and 48 h
# Experimental: as §1
# Escherichia coli C 165 [29] = test: ED100 in mice after intraperitoneal infection, Table 3; assay type: in vivo; details: read-out: effective 100% dose (ED100)
# Experimental: (§3) In animal experiments on mice, the effective 100% dose (ED100) in mg/Kg was determined for certain compounds of the invention after intraperitoneal infection and subcutaneous (s.c.) or oral (p.o.) administration of the preparation.
# [30] = test system: Staphylococcus aureus 133; test: as above; assay type: in vivo; details: read-out: effective 100% dose (ED100)
# Experimental: as §3
# Mycoplasma gallisepticum [31] = test: MIC, series dilution test, measured in a PPLO medium, Table 2; assay type: cell-based; details: Mycoplasmoides gallisepticum, 37° C, 18, 24 and 48 h, read-out: Minimum inhibitory concentration (MIC)
# Experimental: as §2
# (§4) *)measured in a PPLO medium
# Mycoplasma granularum = test: as above; assay type: cell-based; details: Acholeplasma granularum, 37° C, 18, 24 and 48 h, read-out: Minimum inhibitory concentration (MIC)
# Experimental: as §2, §4
smiles,measurement,setting,value
NC(=O)NN=Cc1c(C(=O)O)[n+]([O-])c2ccccc2[n+]1[O-] [Example 12],MIC,Proteus vulgaris species,150 µg/mL
COC(=O)NN=Cc1c(C(=O)O)[n+]([O-])c2ccccc2[n+]1[O-] [Example 13],MIC,[1],12 µg/mL
same,MIC,Mycoplasma gallisepticum [2],6 µg/mL
same,MIC,Klebsiella 63,50 µg/mL
same,MIC,Pseudomonas aeruginosa W,400 µg/mL
same,MIC,[3],50 µg/mL
same,MIC,[4],6 µg/mL
same,MIC,[5],6 to 25 µg/mL
same,MIC,Klebsiella K 10,50 µg/mL
same,MIC,Escherichia coli 2,25 to 50 µg/mL
same,MIC,Proteus vulgaris 1017,17 µg/mL
same,MIC,[6],100 µg/mL
same,MIC,[7],100 µg/mL
same,MIC,[8],12 µg/mL
same,MIC,Escherichia coli A 261 [9],25 to 50 µg/mL
same,MIC,Escherichia coli C 165 [10],50 to 100 µg/mL
same,MIC,[11],100 µg/mL
same,MIC,[12],25 µg/mL
same,MIC,[13],12 µg/mL
same,MIC,Proteus vulgaris 3400,50 µg/mL
same,MIC,Escherichia coli 55 B 5,3 to 6 µg/mL
same,MIC,[14],100 µg/mL
same,MIC,[15],40 µg/mL
same,MIC,[16],100 µg/mL
same,MIC,Escherichia coli 183/58,6 to 12 µg/mL
same,MIC,Proteus mirabilis 2935,12 µg/mL
same,MIC,[17],50 µg/mL
same,MIC,[18],5 to 10 µg/mL
same,MIC,[19],50 µg/mL
same,MIC,[20],25 µg/mL
same,MIC,[21],1 µg/mL
same,MIC,Pseudomonas aeruginosa M,25 µg/mL
same,MIC,Escherichia coli 14,12 to 25 µg/mL
same,MIC,Klebsiella ATCC 10031,1 to 2 µg/mL
same,MIC,[22],50 µg/mL
same,MIC,Pseudomonas aeruginosa B,25 µg/mL
same,MIC,Proteus mirabilis G,12 µg/mL
same,MIC,Proteus vulgaris species,10 µg/mL
same,MIC,Escherichia coli A 261 [23],20 µg/mL
same,MIC,Escherichia coli C 165 [24],50 µg/mL
same,MIC,Streptococcus pyogenes W,100 µg/mL
same,MIC,[25],100 µg/mL
same,MIC,[26],20 µg/mL
same,MIC,[27],100 µg/mL
same,MIC,Klebsiella pneumonia 63,100 µg/mL
same,MIC,[28],10 µg/mL
same,ED100,"Escherichia coli C 165 [29]; C165, oral (p.c. [sic])",25 mg/kg
same,ED100,"Escherichia coli C 165 [29]; C165, sc, s.c.",25 mg/kg
same,ED100,"[30]; Staphylococcus aureus, 133, oral (p.c. [sic])",50 mg/kg
same,ED100,"[30]; Staphylococcus aureus, 133, sc, s.c.",25 mg/kg
same,MIC,Mycoplasma gallisepticum [31],6 µg/mL
same,MIC,Mycoplasma granularum,3 µg/mL
CN(C)N=Cc1c(C(=O)O)[n+]([O-])c2ccccc2[n+]1[O-] [Example 14],ED100,"Escherichia coli C 165 [29]; C165, oral (p.c. [sic])",100 mg/kg
same,ED100,"Escherichia coli C 165 [29]; C165, sc, s.c.",50 mg/kg
